For assay [1], the system named is phenyl-para-quinone induced writhing. The assay is described as follows: phenyl-para-quinone writhing assay in mice (analgesia). The following applies: for inhibition in vivo at 25 mg/kg: 25 mg/kg subcutaneous; for ED50: read-out: ED50, inhibition of phenyl-para-quinone induced writhing. The class given is in vivo. The text has this:
The compounds of the invention are primarily useful as analgesic, anticonvulsant and antidepressant agents. […] Exptl. Biol. Med., 95, 729 (1953)]. Listed below in Table I is the analgesic effect of some of the compounds of the invention, expressed as percent inhibition of phenyl-para-quinone induced writhing.

Assay [2] relates to ptosis of tetrabenazine-induced depression. Kind of assay: inhibition of tetrabenazine-induced depression (ptosis) in mice (antidepressant). The class given is in vivo.
The test system of assay [3] is supra maximal electroshock (extensor tonus). The assay is described as follows: supra maximal electroshock assay (anticonvulsant). Format: in vivo, male mice (Charles River, CD-1). The note with it: for ED50: Mus musculus, sc, read-out: ED50, anticonvulsant effect (supra maximal electroshock). A general note: Protection in the maximal electroshock model is a classic sign of anticonvulsant action.

[4] abbreviates: Mus musculus, sc, subcutaneous, mice, 50% inhibition.
Setting [5] is: subcutaneous, mice, 50% inhibition.

The values that follow come from patent publication US4668690A, “1,2,3,4,4a,9b-hexahydro-4a-aminoalkyldibenzofurans useful as analgesics, anticonvulsants or antidepressants” (Hoechst Roussel Pharmaceuticals Inc., priority 1985, dated 1987).

By ED50 is commonly meant the dose that gives a 50% effect, or the effect in half of the subjects.

Structures can show the parent of a compound that is named as a salt. Where two headings read alike, the source gives them in different places.

For `CN(CCCOc1ccccc1)CC[C@@]12CCCC[C@@H]1c1ccccc1O2` (relative stereo) [Cis-1,2,3,4,4a,9b-hexahydro-4a-[2-{N-methyl-N-(3-phenoxypropyl)}aminoethyl]dibenzofuran oxalate], the inhibition in vivo at 25 mg/kg in assay [1] (Mus musculus, sc, mice) was found to be 65%.
As for `CN(C)C[C@@]12CCCC[C@@H]1c1ccccc1O2.Cl` (relative stereo) [Cis-1,2,3,4,4a,9b-hexahydro-4a-dimethylaminomethyldibenzofuran hydrochloride], in assay [1] (setting [4]), the ED50 amounted to 21.7 mg/kg.
As to `CNCC[C@@]12CCCC[C@@H]1c1ccccc1O2.Cl` (relative stereo) [cis-1,2,3,4,4a,9b-Hexahydro-4a-(2-methylaminoethyl)dibenzofuran hydrochloride], the ED50 came out at 16.2 mg/kg in assay [1] (Mus musculus, sc) and 41.7 mg/kg in assay [3]. Also, the “% Inhibition of the ptosis of tetrabenazine-induced depression” value in assay [2] (20.0 mg/kg intraperitoneal) is given as 60%.
On to `CNCCC[C@@]12CCCC[C@@H]1c1ccccc1O2` (relative stereo) [cis-1,2,3,4,4a,9b-Hexahydro-4a-(3-methylaminopropyl)dibenzofuran], for which the inhibition in vivo at 25 mg/kg in assay [1] (Mus musculus, sc, mice) was determined as 58%. Further, the ED50 in assay [2] (Mus musculus, ip, intraperitoneal, 50% inhibition) worked out at 5.9 mg/kg; in assay [3] (setting [5]), 27.7 mg/kg.
In the case of `CC(C)=CCN(C)CC[C@@]12CCCC[C@@H]1c1ccccc1O2` (relative stereo) [cis-1,2,3,4,4a,9b-Hexahydro-4a-[2-(N-(3-methyl-2-butenyl)-N-methyl)aminoethyl]dibenzofuran oxalate], the “% Inhibition of the ptosis of tetrabenazine-induced depression” value in assay [2] (20.0 mg/kg intraperitoneal) was determined as 77%.
For `CN(CCc1ccccc1)CC[C@@]12CCCC[C@@H]1c1ccccc1O2` (relative stereo) [cis-1,2,3,4,4a,9b-Hexahydro-4a-[2-(N-methyl-N-phenethyl)aminoethyl]dibenzofuran hydrochloride], the inhibition in vivo at 25 mg/kg in assay [1] (Mus musculus, sc, mice) turned out to be 63%.
Take `CN(CCCc1ccccc1)CCC[C@@]12CCCC[C@@H]1c1ccccc1O2` (relative stereo) [cis-1,2,3,4,4a,9b-Hexahydro-4a-[3-(N-(3-phenylpropyl)-N-methyl)aminopropyl]dibenzofuran oxalate hydrate]: the inhibition in vivo at 25 mg/kg in assay [1] (Mus musculus, sc, mice) came out at 37%.
The same measure, in the same setting: the same measure for `CN(CCC[C@@]12CCCC[C@@H]1c1ccccc1O2)Cc1ccco1` (relative stereo) [cis-1,2,3,4,4a,9b-Hexahydro-4a-[3-(N-methyl-N-furfuryl)aminopropyl]dibenzofuran oxalate hydrate]: 61%.
Turning to `CN(CCC[C@@]12CCCC[C@@H]1c1ccccc1O2)CCc1ccccc1.Cl` (relative stereo) [cis-1,2,3,4,4a,9b-Hexahydro-4a-[3-(N-methyl-N-phenethylamino)propyl]dibenzofuran hydrochloride], the ED50 in assay [1] (setting [4]) amounted to 20.8 mg/kg. The “% Inhibition, anticonvulsant effect (supra maximal electroshock)” value (from here on “% Inhibition, anticonvulsant effect”) in assay [3] (25 mg/kg subcutaneous, mice) amounted to 50%.
In the case of `CNC[C@@]12CCCC[C@@H]1c1ccccc1O2.Cl` (relative stereo) [cis-1,2,3,4,4a,9b-Hexahydro-4a-methylaminomethyldibenzofuran hydrochloride], the ED50 in assay [1] (setting [4]) is 25.8 mg/kg; in assay [3] (setting [5]), 22.5 mg/kg.
In the case of `c1ccc2c(c1)O[C@]1(CCCN3CCCCC3)CCCC[C@H]21` (relative stereo) [cis-1,2,3,4,4a,9b-hexahydro-4a-(3-piperidinopropyl)dibenzofuran oxalate], the inhibition in vivo at 25 mg/kg in assay [1] (Mus musculus, sc, mice) amounted to 64%.
Molecule `CN(C)CC[C@@]12CCCC[C@@H]1c1ccccc1O2.Cl` (relative stereo) [cis-4a-(2-Dimethylaminoethyl)-1,2,3,4,4a,9b-Hexahydrodibenzofuran hydrochloride] came in with an inhibition in vivo at 25 mg/kg in assay [1] (Mus musculus, sc, mice) of 67%. Further, the “% Inhibition of the ptosis of tetrabenazine-induced depression” value in assay [2] (20.0 mg/kg intraperitoneal) stood at 70%. In addition, in assay [3] (setting [5]), the ED50 amounted to 22.4 mg/kg.
For the molecule `CN(C)CCC[C@@]12CCCC[C@@H]1c1ccccc1O2.Cl` (relative stereo) [cis-4a-(Dimethylaminopropyl)-1,2,3,4,4a,9b-hexahydrodibenzofuran hydrochloride], the ED50 was 12.2 mg/kg in assay [1] (setting [4]) and 28.1 mg/kg in assay [3] (setting [5]).
As to `CN(C)CCC=C1c2ccccc2CCc2ccccc21` [Amitriptyline, reference compound], the “% Inhibition of the ptosis of tetrabenazine-induced depression” value in assay [2] (2.0 mg/kg intraperitoneal, standard) is 50%.
For the molecule `CNC1=Nc2ccc(Cl)cc2C(c2ccccc2)=[N+]([O-])C1` [Chlorodiazepoxide, reference compound], the “% Inhibition, anticonvulsant effect” value in assay [3] (8.0 mg/kg subcutaneous, mice, standard) is recorded as 50%.
With `CN1C(=O)CN=C(c2ccccc2)c2cc(Cl)ccc21` [Diazepam, reference compound], in assay [3] (1.7 mg/kg subcutaneous, mice, standard), the “% Inhibition, anticonvulsant effect” value stood at 50%.
Consider `CCC(=O)O[C@](Cc1ccccc1)(c1ccccc1)[C@H](C)CN(C)C` [propoxyphene, reference compound], for which, in assay [1] (Mus musculus, sc, read-out: % Inhibition of phenyl-para-quinone induced writhing), the inhibition in vivo at 3.9 mg/kg came out at 50%.
Regarding “cis-1,2,3,4,4a,9b-Hexahydro-4a-[2-[N-(3-phenylpropyl)-N-methylamino]ethyl]dibenzofuran oxalate hemihydrate”, the “ED50, inhibition of phenyl-para-quinone induced writhing” value in assay [1] (setting [5]) turned out to be 7.3 mg/kg.
